Assay results taken from patent US5340808A, “Fused pyridazinoquinazolone derivatives as neurotrophic agents” (Warner Lambert Company, priority 1992, dated 1994).
Each block holds one molecule with its values, some of them ahead of it.

Assays:
[1] = biological target: T1, p75 receptor (truncated form, residues 1-222) (Homo sapiens, UniProt P08138); assay: Inhibition of 125I-NGF binding to the NGF p75 receptor; conditions: 2 nM 125I-NGF, 2 hours at room temperature; for IC50: read-out: Inhibition of 125I-NGF Binding to p 75 (IC50); for inhibition at 10 µM: at 10,000 nM, read-out: Inhibition of 125I-NGF Binding to p 75 (% inh)
T1 construct: truncated form (residues 1-222, molecular weight=56 KDa) of the p75 receptor; biotin (chemical label, immobilised on streptavidin); purchased Chiron Corporation, Emeryville, Calif; (also commercially available from Austral Biologicals, Inc., San Diego, Calif.)
T1 sequence (P08138 29-250): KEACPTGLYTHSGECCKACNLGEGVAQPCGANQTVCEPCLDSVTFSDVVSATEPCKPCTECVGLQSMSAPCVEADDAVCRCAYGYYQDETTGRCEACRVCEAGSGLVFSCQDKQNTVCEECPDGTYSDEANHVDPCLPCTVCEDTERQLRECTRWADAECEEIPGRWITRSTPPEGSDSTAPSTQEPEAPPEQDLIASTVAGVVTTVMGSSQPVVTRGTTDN
Method: Binding assays of novel compounds to the NGF p75 receptor are performed using a truncated form (residues 1-222, molecular weight=56 KDa) of the p75 receptor, originally obtained from Chiron Corporation, Emeryville, Calif., but also commercially available from Austral Biologicals, Inc. (San Diego, Calif.), on plastic 96 well microtiter plates (Immulon II Dynatech). The wells are coated with 50 μl/well of 20 μg/ml streptavidin in a […] (DPBS). The plates are then incubated at room temperature for 6 hours. The excess streptavidin is then poured out, the wells are washed with a 0.1% solution of bovine serum albumin (BSA) in DPBS. To each well is then added […] of a DPBS solution containing the truncated p75 receptor, which has previously been reacted with biotin by standard procedures. The plates are then incubated at room temperature for 2 hours, and washed with 0.2% BSA/DPBS. To each well is added 98 μl of 2 nM ^125 I-NGF, followed by 2 μl/well of a concentration of test compound that is 50 times greater than the desired final test concentration. The plates are incubated for 2 hours at room temperature. […]

[2] = test system: sensory neuropathies; conditions: cited from earlier work
[3] = test system: basal forebrain cholinergic neurons; conditions: cited from earlier work
[4] = test system: Alzheimer's disease; conditions: recent clinical findings in humans; cited from earlier work
[5] = test system: substantia nigra dopaminergic neurons; conditions: cited from earlier work

Molecule: O=C(O)c1ccc2nc3cc4ccccc4cc3c(=O)n2n1 [12-Oxo-12H-benzo[g]pyridazino[3,2-b]quinazoline-2-carboxylic acid]
IC50 [1]: 0.344 to 0.369 µM

Molecule: O=C(O)c1ccc2nc3ccccc3c(=O)n2n1 [10-Oxo-10H-pyridazino[6,1-b]quinazoline-2-carboxylic acid]
inhibition at 10 µM [1]: 39%

Molecule: Cc1ccc(C(=O)Nc2ccc3nc4ccc(C(=O)O)nn4c(=O)c3c2)cc1 [8-[(4-Methylbenzoyl)amino]-10-oxo-10H-pyridazino [6,1-b]quinazoline-2-carboxylic acid]
IC50 [1]: 0.238 µM

Molecule: NGF: β-subunit, a dimer consisting of two equivalent monomers of approximately 13,000 dalton molecular weight
development of large-fiber sensory neuropathies from cisplatin, and animal model of diabetes-induced neuropathy ([2]; cisplatin, animal model of diabetes-induced neuropathy): efficacious
development of small-fiber sensory neuropathies from taxol ([2]; taxol): prevents the development of small-fiber sensory neuropathies
behavioral impairment associated with atrophied or lesioned basal forebrain cholinergic neurons ([3]; animals with atrophied or lesioned basal forebrain cholinergic neurons): reverse the associated behavioral impairment
ability of brain cholinergic neurons to survive a chemical insult ([3]; chemical insult): enhances the ability of brain cholinergic neurons to survive a chemical insult
degeneration of neurons in the medial septal nucleus after lesion of the septo-hippocampal pathway ([3]; into the cerebrospinal fluid via a miniosmotic pump): This neuronal degeneration can be prevented
usefulness in the treatment of AD [4]: treatment with NGF is useful in the treatment of AD

Molecule: O=C(Nc1ccc2nc3ccc(C(=O)O)nn3c(=O)c2c1)c1ccccc1 [8-(Benzoylamino)-10-oxo-10H-pyridazino[6,1-b]-quinazoline-2-carboxylic acid]
IC50 [1]: 0.067 µM

B1: BDNF: member of the neurotrophins, a family of related neurotrophic peptides (protein, UniProt P23560 19-247, looked up)
Neurotrophic factor BDNF …: APMKEANIRGQGGLAYPGVRTHGTLESVNGPKAGSRGLTSLADTFEHVIEELLDEDQKVRPNEENNKDADLYTSRVMLSSQVPLEPPLLFLLEEYKNYLDAANMSMRVRRHSDPARRGELSVCDSISEWVTAADKKTAVDMSGGTVTVLEKVPVSKGQLKQYFYETKCNPMGYTKEGCRGIDKRHWNSQCRTTQSYVRALTMDSKKRIGWRFIRIDTSCVCTLTIKRGR
neurotrophic effects on substantia nigra dopaminergic neurons [5]: exerts neurotrophic effects on substantia nigra dopaminergic neurons

Continued, values first:

inhibition at 10 µM [1]: 46%
Molecule: O=C(O)c1ccc2c(=O)n3nc(C(=O)O)ccc3nc2c1 [10-Oxo-10H-pyridazino[6,1-b]quinazoline-2,7-dicarboxylic acid]

inhibition at 10 µM [1]: 42%
Molecule: CC(=O)Nc1ccc2c(=O)n3nc(C(=O)O)ccc3nc2c1 [7 -Acetylamino-10-oxo-10H-pyridazino[6,1-b]quinazoline-2-carboxylic acid]

IC50 [1]: 2.19 µM
Molecule: O=C(O)c1ccc2nc3ccc(C(=O)O)nn3c(=O)c2c1 [10-Oxo-10H-pyridazino[6,1-b]quinazoline-2,8-dicarboxylic acid]

IC50 [1]: 4.9 µM
Molecule: Cc1ccc2c(=O)n3nc(C(=O)O)ccc3nc2c1 [7-Methyl-10-oxo-10H-pyridazino[6,1-b]quinazoline-2-carboxylic acid]

IC50 [1]: 4 µM
Molecule: O=C(O)c1ccc2nc3ccc(Cl)cc3c(=O)n2n1 [8-Chloro-10-oxo-10H-pyridazino[6,1-b]quinazoline-2-carboxylic acid]

IC50 [1]: 1.8 µM
Molecule: Cc1ccc2nc3ccc(C(=O)O)nn3c(=O)c2c1 [8-Methyl-10-oxo-10H-pyridazino[6,1-b]quinazoline-2-carboxylic acid]

IC50 [1]: 1.5 µM
Molecule: COc1ccc2nc3ccc(C(=O)O)nn3c(=O)c2c1 [8-Methoxy-10-oxo-10H-pyridazino[6,1-b]quinazoline-2-carboxylic acid]
